The source of these data is patent publication USRE49687E1, “Thienopyrimidine and thienopyridine compounds and methods of use thereof” (The Regents of The University of Michigan, priority 2014, dated 2023).

pIC50: −log10 of the molar value. “And” between values parts separate entries of the source, which are not always exact repeats. Equal values may be shown once.

This experiment concerns the target T1, menin-MLL interaction (Homo sapiens, UniProt O00255).
T1 sequence (O00255 1-610): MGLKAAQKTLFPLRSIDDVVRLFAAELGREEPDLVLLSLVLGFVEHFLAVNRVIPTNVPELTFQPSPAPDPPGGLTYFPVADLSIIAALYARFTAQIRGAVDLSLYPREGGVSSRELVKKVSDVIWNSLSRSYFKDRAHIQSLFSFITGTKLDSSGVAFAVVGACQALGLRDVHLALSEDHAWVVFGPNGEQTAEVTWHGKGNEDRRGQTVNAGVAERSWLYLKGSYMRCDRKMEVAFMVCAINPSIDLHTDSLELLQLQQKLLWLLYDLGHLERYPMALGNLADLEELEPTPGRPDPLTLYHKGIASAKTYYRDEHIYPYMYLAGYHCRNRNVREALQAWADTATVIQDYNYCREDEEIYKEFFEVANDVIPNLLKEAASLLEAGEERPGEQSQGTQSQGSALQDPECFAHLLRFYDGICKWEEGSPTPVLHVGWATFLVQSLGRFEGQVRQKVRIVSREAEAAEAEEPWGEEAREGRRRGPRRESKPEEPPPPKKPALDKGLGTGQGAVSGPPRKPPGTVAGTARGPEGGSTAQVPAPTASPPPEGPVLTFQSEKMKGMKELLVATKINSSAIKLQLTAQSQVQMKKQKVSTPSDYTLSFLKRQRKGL
The experiment is described as follows: Fluorescence polarization (FP) competition assay of the menin-MLL interaction. Conditions: inhibition of the menin-MLL interaction; read-out: IC50 values for Table 1 inhibitors of menin. It counts as binding. Background: Fluorescence polarisation rises when a labelled molecule tumbles more slowly, as on binding a larger partner.
A word on the pIC50: it is the IC50 on a negative log10 scale, so that one unit is a factor of ten. With `C=CC(=O)N1CCN(CCn2c(C#N)cc3cc(CN4CCC(Nc5ccnc6sc(CC(F)(F)F)cc56)CC4)ccc32)CC1` [Compound 1], the pIC50 is 7.00 to 7.52.

For the compound `C=CC(=O)N1CCN(CCCn2c(C#N)cc3cc(CN4CCC(Nc5ncnc6sc(CC(F)(F)F)cc56)CC4)ccc32)CC1` [Compound 2], the pIC50 is 7.00 to 7.52.

In the case of `C/C=C/C(=O)N1CCN(CCn2c(C#N)cc3c(C)c(CN4CCC(Nc5ncnc6sc(CC(F)(F)F)cc56)CC4)ccc32)CC1` [Compound 4], the pIC50 was over 7.52. For `C#CC(=O)N1CCN(CCn2c(C#N)cc3c(C)c(CN4CCC(Nc5ncnc6sc(CC(F)(F)F)cc56)CC4)ccc32)CC1` [Compound 5] the value was 7.00 to 7.52; for `Cc1c(CN2CCC(Nc3ncnc4sc(CC(F)(F)F)cc34)CC2)ccc2c1cc(C#N)n2CCN1CCN(C(=O)/C=C/CN(C)C)CC1` [Compound 6], over 7.52. Next, `C/C=C/S(=O)(=O)N1CCN(CCn2c(C#N)cc3c(C)c(CN4CCC(Nc5ncnc6sc(CC(F)(F)F)cc56)CC4)ccc32)CC1` [Compound 7]: over 7.52.

As to `C=CS(=O)(=O)N1CCC(CCn2c(C#N)cc3c(C)c(CN4CCC(Nc5ncnc6sc(CC(F)(F)F)cc56)CC4)ccc32)CC1` [Compound 8], the pIC50 is over 7.52. In the case of `C=CC(=O)NCc1cc(Cn2c(C#N)cc3c(C)c(CN4CCC(Nc5ncnc6sc(CC(F)(F)F)cc56)CC4)ccc32)n[nH]1` [Compound 10], the pIC50 was 7.00 to 7.52. For `C=CC(=O)NCCC(O)(CO)Cn1c(C#N)cc2c(C)c(CN3CCC(Nc4ncnc5sc(CC(F)(F)F)cc45)CC3)ccc21` (stereo not drawn) [Compound 11] the value was over 7.52. As for `C=CS(=O)(=O)N1CC2CC1CN2CCn1c(C#N)cc2c(C)c(CN3CCC(Nc4ncnc5sc(CC(F)(F)F)cc45)CC3)ccc21` (stereo not drawn) [Compound 17, 4-methyl-5-((4-((6-(2,2,2-trifluoroethyl)thieno[2,3-d]pyrimidin-4-yl)amino)piperidin-1-yl)methyl)-1-(2-(5-(vinylsulfonyl)-2,5-diazabicyclo[2.2.1]heptan-2-yl)ethyl)-1H-indole-2-carbonitrile], the pIC50 is 6.00 to 7.00. As to `C=CS(=O)(=O)N1CC2CCC(C1)N2CCn1c(C#N)cc2c(C)c(CN3CCC(Nc4ncnc5sc(CC(F)(F)F)cc45)CC3)ccc21` [Compound 18], the pIC50 was > 7.52 and 7.00 to 7.52.

As to `C=CS(=O)(=O)N1C2CCC1CN(CCn1c(C#N)cc3c(C)c(CN4CCC(Nc5ncnc6sc(CC(F)(F)F)cc56)CC4)ccc31)C2` [Compound 23], the pIC50 was over 7.52.

As to `C=CC(=O)N1C2CCC1CN(CCn1c(C#N)cc3c(C)c(CN4CCC(Nc5ncnc6sc(CC(F)(F)F)cc56)CC4)ccc31)C2` [Compound 24], the pIC50 is 7.00 to 7.52. Next, `C=CC(=O)NC1CCN(CCn2c(C#N)cc3c(C)c(CN4CCC(Nc5ncnc6sc(CC(F)(F)F)cc56)CC4)ccc32)CC1` [Compound 25]: 7.00 to 7.52; `Cc1c(CN2CCC(Nc3ncnc4sc(CC(F)(F)F)cc34)CC2)ccc2c1cc(C#N)n2CCN1CCC(NC(=O)/C=C/CN(C)C)CC1` [Compound 27]: over 7.52; `C=CC(=O)NC1CN(CCn2c(C#N)cc3c(C)c(CN4CCC(Nc5ncnc6sc(CC(F)(F)F)cc56)CC4)ccc32)C1` [Compound 28]: 7.00 to 7.52. As to `C=CC(=O)NC1CCN(CCn2c(C#N)cc3c(C)c(CN4CCC(Nc5ncnc6sc(CC(F)(F)F)cc56)CC4)ccc32)C1` (stereo not drawn) [Compound 29], the pIC50 is over 7.52. For `C=CC(=O)N[C@H]1CCN(CCn2c(C#N)cc3c(C)c(CN4CCC(Nc5ncnc6sc(CC(F)(F)F)cc56)CC4)ccc32)C1` [Compound 31] the value was over 7.52; for `C=CC(=O)N[C@@H]1CCN(CCn2c(C#N)cc3c(C)c(CN4CCC(Nc5ncnc6sc(CC(F)(F)F)cc56)CC4)ccc32)C1` [Compound 32], over 7.52; for `C=CC(=O)Nc1nc(CCn2c(C#N)cc3c(C)c(CN4CCC(Nc5ncnc6sc(CC(F)(F)F)cc56)CC4)ccc32)cs1` [Compound 34, N-(4-(2-(2-cyano-4-methyl-5-((4-((6-(2,2,2-trifluoroethyl)thieno[2,3-d]pyrimidin-4-yl)amino)piperidin-1-yl)methyl)-1H-indol-1-yl)ethyl)thiazol-2-yl)acrylamide], 7.00 to 7.52.

For the compound `C=CC(=O)N1CCCN(CCn2c(C#N)cc3c(C)c(CN4CCC(Nc5ncnc6sc(CC(F)(F)F)cc56)CC4)ccc32)CC1` [Compound 66], the pIC50 is over 7.52. For `C=CC(=O)Nc1ccc(CCn2c(C#N)cc3c(C)c(CN4CCC(Nc5ncnc6sc(CC(F)(F)F)cc56)CC4)ccc32)cc1` [Compound 81, N-(4-(2-(2-cyano-4-methyl-5-((4-(6-(2,2,2-trifluoroethyl)thieno[2,3-d]pyrimidin-4-ylamino)piperidin-1-yl)methyl)-1H-indol-1-yl)ethyl)phenyl)acrylamide] the value was over 7.52; for `C=CC(=O)NC1CCN(CCn2c(C#N)cc3cc(CN4CCC(Nc5ncnc6sc(CC(F)(F)F)cc56)CC4)c(O)cc32)CC1` [Compound 93], over 7.52. As to `C=CC(=O)NN1CCN(CCn2c(C#N)cc3c(C)c(CN4CCC(Nc5ncnc6sc(CC(F)(F)F)cc56)CC4)ccc32)CC1` [Compound 94], the pIC50 is 7.00 to 7.52.

For `C=CC(=O)Nc1ccc(CCn2c(C#N)cc3c(C)c(CN4CCC(Nc5ncnc6sc(CC(F)(F)F)cc56)CC4)ccc32)cn1` [Compound 100, N-(5-(2-(2-cyano-4-methyl-5-((4-(6-(2,2,2-trifluoroethyl)thieno[2,3-d]pyrimidin-4-ylamino)piperidin-1-yl)methyl)-1H-indol-1-yl)ethyl)pyridin-2-yl)acrylamide], the pIC50 was over 7.52. Next, `C=CC(=O)Nc1ccc(C(O)Cn2c(C#N)cc3c(C)c(CN4CCC(Nc5ncnc6sc(CC(F)(F)F)cc56)CC4)ccc32)cc1` (stereo not drawn) [Compound 101]: over 7.52; `CCC(=O)Nc1ccc(CCn2c(C#N)cc3c(C)c(CN4CCC(Nc5ncnc6sc(CC(F)(F)F)cc56)CC4)ccc32)cc1` [Compound 102]: over 7.52; `CCC(=O)N1CCCN(CCn2c(C#N)cc3c(C)c(CN4CCC(Nc5ncnc6sc(CC(F)(F)F)cc56)CC4)ccc32)CC1` [Compound 103]: 7.00 to 7.52. Next, `Cc1c(CN2CCC(Nc3ncnc4sc(CC(F)(F)F)cc34)CC2)ccc2c1cc(C#N)n2CCc1ccc(N)c(S(C)(=O)=O)c1` [Compound 104]: 7.00 to 7.52; `C=CC(=O)Nc1ccc(CCn2c(C#N)cc3c(C)c(CN4CCC(Nc5ncnc6sc(CC(F)(F)F)cc56)CC4)ccc32)cc1S(C)(=O)=O` [Compound 105]: over 7.52; `C/C=C/C(=O)Nc1ccc(CCn2c(C#N)cc3c(C)c(CN4CCC(Nc5ncnc6sc(CC(F)(F)F)cc56)CC4)ccc32)cn1` [Compound 106]: 7.00 to 7.52.

Take `C=CC(=O)Nc1ccc(C(O)Cn2c(C#N)cc3c(C)c(CN4CCC(Nc5ncnc6sc(CC(F)(F)F)cc56)CC4)ccc32)cn1` (stereo not drawn) [Compound 112]: the negative logarithm of the IC50 (pIC50) was over 7.52. For `C=CC(=O)Nc1ccc(C(C)(O)Cn2c(C#N)cc3c(C)c(CN4CCC(Nc5ncnc6sc(CC(F)(F)F)cc56)CC4)ccc32)cc1` (stereo not drawn) [Compound 115] the value was 7.00 to 7.52. Next, `Cc1c(CN2CCC(Nc3ncnc4sc(CC(F)(F)F)cc34)CC2)ccc2c1cc(C#N)n2CCN1CC2CNCC2C1` (stereo not drawn) [Compound 167]: over 7.52; `C=CC(=O)N1CC2CN(CCn3c(C#N)cc4c(C)c(CN5CCC(Nc6ncnc7sc(CC(F)(F)F)cc67)CC5)ccc43)CC2C1` (stereo not drawn) [Compound 168]: 7.00 to 7.52.

For the compound `Cc1c(CN2CCC(Nc3ncnc4sc(CC(F)(F)F)cc34)CC2)ccc2c1cc(C#N)n2CCN1CCC2(CCNC2)CC1` [Compound 169], the pIC50 is 7.00 to 7.52.

In the case of `C=CC(=O)N1CCC2(CCN(CCn3c(C#N)cc4c(C)c(CN5CCC(Nc6ncnc7sc(CC(F)(F)F)cc67)CC5)ccc43)CC2)C1` [Compound 170], the pIC50 was 7.00 to 7.52. Take `Cc1c(CN2CCC(Nc3ncnc4sc(CC(F)(F)F)cc34)CC2)ccc2c1cc(C#N)n2CCN1CCC2(CCNC2)C1` (stereo not drawn) [Compound 171]: the pIC50 was 7.00 to 7.52. For `C=CC(=O)N1CCC2(CCN(CCn3c(C#N)cc4c(C)c(CN5CCC(Nc6ncnc7sc(CC(F)(F)F)cc67)CC5)ccc43)C2)C1` (stereo not drawn) [Compound 172] the value was 7.00 to 7.52. Next, `C=CC(=O)N1CC2(CN(CCn3c(C#N)cc4c(C)c(CN5CCC(Nc6ncnc7sc(CC(F)(F)F)cc67)CC5)ccc43)C2)C1` [Compound 174]: 7.00 to 7.52; `C=CC(=O)N1CCC2(CN(CCn3c(C#N)cc4c(C)c(CN5CCC(Nc6ncnc7sc(CC(F)(F)F)cc67)CC5)ccc43)C2)C1` [Compound 176]: 7.00 to 7.52; `C=CC(=O)N1CCC2(CC1)CN(CCn1c(C#N)cc3c(C)c(CN4CCC(Nc5ncnc6sc(CC(F)(F)F)cc56)CC4)ccc31)C2` [Compound 178]: 7.00 to 7.52. For `C=CC(=O)N1CC2(CCN(CCn3c(C#N)cc4c(C)c(CN5CCC(Nc6ncnc7sc(CC(F)(F)F)cc67)CC5)ccc43)C2)C1` [Compound 182], the pIC50 is 7.00 to 7.52.

As to `C=CC(=O)N1CC2(CCN(CCn3c(C#N)cc4c(C)c(CN5CCC(Nc6ncnc7sc(CC(F)(F)F)cc67)CC5)ccc43)CC2)C1` [Compound 184], the pIC50 is over 7.52. Take `Cc1c(CN2CCC(Nc3ncnc4sc(CC(F)(F)F)cc34)CC2)ccc2c1cc(C#N)n2CCc1cccc(N)c1` [Compound 189]: the pIC50 was 7.00 to 7.52.
